What was measured:
[1] = tested on: U-2 OS reporter cell lines battery; test: CALUX reporter gene assay battery as a whole; settings: all CALUX assays, 13 concentrations, 24 h exposure
[2] = tested on: Nrf2 (Oxidative stress); test: Nrf2 CALUX; type: cell-based, human; settings: 24 h exposure, lowest effect level FI=1.5, means from 3 assay runs
Experimental: (§1) After 24 h, exposure medium was prepared. […] All samples were tested in triplicates. […] Fig. SM_4. […] Fig. SM_4.
(§2) Supplementary Material SM_4
(§3) Overview of CALUX assays.
(§4) This is defined as the concentration of test compound […]
(§5) for an antagonist assay is a PC20.
(§6) PC = positive control. FI = fold induction. PC10: concentration where test compound causes an activation equal to 10% of the maximum effect (positive control). PC20: concentration where test compound causes […]
(§7) FI=1.5: concentration where test
(§8) (A) exemplary graph of concentration- […]
(§9) receptor antagonism assay with PC20 as lowest-effect-level. (C) exemplary graph for assay with 1.5 fold inductionas lowest effect level. 9

[3] = tested on: p53-dependent pathway activation / genotoxicity; type: cell-based, human; settings: 24 h exposure, lowest effect level FI=1.5, means from 3 assay runs
Experimental: as §1, §2, §3, §4, §5, §6, §7, §8, §9

[4] = tested on: U-2 OS cells; test: Cytotox CALUX; settings: 24 h exposure, lowest effect level PC20, means from 3 assay runs
[5] = parameters: method as in Sommar et al. 2000; settings: KAW < 0.03 considered non-volatile; ref Sommar et al. 2000; cited from earlier work
[6] = tested on: AP1 pathway activation / cell cycle control; test: AP-1 CALUX; type: cell-based, human; settings: 24 h exposure, lowest effect level PC10, means from 3 assay runs
Experimental: as §1, §2, §3, §4, §5, §6, §7, §8, §9

[7] = target: T1, Progesterone receptor (Homo sapiens, UniProt P06401); test: PR-anti CALUX; type: cell-based; settings: 24 h exposure, lowest effect level PC20, reference agonist at EC50, means from 3 assay runs
T1 construct: host or cells: U-2 OS
T1 sequence (P06401 1-933): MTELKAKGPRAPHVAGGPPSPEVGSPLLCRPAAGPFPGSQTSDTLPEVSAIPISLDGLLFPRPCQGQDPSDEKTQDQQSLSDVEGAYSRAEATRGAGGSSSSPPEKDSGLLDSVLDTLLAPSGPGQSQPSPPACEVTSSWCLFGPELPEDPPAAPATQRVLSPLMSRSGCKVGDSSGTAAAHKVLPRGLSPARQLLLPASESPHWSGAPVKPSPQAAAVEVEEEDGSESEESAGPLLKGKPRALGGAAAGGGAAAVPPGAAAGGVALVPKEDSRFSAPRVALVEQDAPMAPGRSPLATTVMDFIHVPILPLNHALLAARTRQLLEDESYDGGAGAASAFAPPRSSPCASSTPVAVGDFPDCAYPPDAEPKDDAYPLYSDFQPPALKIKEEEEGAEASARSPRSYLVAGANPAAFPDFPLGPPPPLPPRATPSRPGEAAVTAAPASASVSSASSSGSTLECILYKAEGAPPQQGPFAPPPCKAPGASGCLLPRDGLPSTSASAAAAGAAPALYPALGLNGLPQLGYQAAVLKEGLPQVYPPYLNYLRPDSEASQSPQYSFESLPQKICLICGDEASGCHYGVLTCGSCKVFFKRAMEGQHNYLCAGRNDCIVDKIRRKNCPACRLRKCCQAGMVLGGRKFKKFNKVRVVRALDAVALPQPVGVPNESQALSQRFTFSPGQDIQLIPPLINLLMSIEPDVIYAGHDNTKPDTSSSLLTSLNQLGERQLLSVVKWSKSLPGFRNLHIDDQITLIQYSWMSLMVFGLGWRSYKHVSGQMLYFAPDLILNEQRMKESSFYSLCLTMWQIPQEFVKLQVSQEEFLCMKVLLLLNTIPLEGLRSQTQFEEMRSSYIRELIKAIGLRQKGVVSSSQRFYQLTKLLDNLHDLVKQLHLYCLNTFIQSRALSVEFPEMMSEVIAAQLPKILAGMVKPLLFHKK
Experimental: as §1, §2, §3, §4, §5, §6, §7, §8, §9

[8] = target: T2, Aryl Hydrocarbon receptor (Rattus norvegicus, UniProt P41738); test: DR CALUX / AhR CALUX (rat hepatoma H-4-II-E cells); type: cell-based; settings: 24 h exposure, lowest effect level PC10, means from 3 assay runs
T2 construct: host or cells: rat hepatoma H-4-II-E (ATCC CRL-1548)
T2 sequence (P41738 10-853): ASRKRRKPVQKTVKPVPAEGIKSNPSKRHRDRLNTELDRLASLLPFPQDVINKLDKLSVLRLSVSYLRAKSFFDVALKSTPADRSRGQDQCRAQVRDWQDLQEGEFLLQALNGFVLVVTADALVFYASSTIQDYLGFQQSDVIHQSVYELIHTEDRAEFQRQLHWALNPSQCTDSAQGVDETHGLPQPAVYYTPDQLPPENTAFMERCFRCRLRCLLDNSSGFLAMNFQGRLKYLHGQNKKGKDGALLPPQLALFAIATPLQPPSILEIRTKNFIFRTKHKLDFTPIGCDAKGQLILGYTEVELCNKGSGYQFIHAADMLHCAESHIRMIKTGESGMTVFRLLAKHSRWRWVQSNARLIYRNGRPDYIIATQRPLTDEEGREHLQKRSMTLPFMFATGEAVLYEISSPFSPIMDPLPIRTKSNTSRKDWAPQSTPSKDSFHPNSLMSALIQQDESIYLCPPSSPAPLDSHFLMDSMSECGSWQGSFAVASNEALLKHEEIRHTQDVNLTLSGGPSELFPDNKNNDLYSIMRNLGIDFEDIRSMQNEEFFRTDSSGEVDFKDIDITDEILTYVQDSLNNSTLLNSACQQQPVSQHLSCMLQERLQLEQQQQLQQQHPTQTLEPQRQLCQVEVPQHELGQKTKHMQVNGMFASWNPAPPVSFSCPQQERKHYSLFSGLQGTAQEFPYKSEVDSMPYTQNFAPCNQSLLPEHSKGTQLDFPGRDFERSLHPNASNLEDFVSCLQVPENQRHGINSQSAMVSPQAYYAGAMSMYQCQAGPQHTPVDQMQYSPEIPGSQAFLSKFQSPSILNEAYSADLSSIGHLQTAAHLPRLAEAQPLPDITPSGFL

[9] = target: T3, Pregnane X receptor (Homo sapiens, UniProt O75469); test: PXR CALUX; type: cell-based; settings: 24 h exposure, lowest effect level PC10, means from 3 assay runs
T3 construct: host or cells: U-2 OS
T3 sequence (O75469 1-434): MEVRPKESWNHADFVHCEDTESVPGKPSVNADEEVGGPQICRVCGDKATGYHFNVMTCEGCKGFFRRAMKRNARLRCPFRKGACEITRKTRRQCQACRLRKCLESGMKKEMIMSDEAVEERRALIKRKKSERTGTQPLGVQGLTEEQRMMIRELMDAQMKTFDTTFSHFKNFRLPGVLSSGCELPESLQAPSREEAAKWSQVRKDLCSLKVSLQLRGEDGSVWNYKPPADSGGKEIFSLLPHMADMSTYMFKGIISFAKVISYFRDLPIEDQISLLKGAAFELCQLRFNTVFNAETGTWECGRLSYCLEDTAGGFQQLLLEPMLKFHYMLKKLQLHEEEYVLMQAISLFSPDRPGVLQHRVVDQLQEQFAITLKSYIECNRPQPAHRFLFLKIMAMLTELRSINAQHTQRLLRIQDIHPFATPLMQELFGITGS
Experimental: as §1, §2, §3, §4, §5, §6, §7, §8, §9

[10] = target: T4, Glucocorticoid receptor (Homo sapiens, UniProt P04150); type: cell-based; settings: 24 h exposure, lowest effect level PC20, reference agonist at EC50, means from 3 assay runs
T4 construct: host or cells: U-2 OS
T4 sequence (P04150 1-777): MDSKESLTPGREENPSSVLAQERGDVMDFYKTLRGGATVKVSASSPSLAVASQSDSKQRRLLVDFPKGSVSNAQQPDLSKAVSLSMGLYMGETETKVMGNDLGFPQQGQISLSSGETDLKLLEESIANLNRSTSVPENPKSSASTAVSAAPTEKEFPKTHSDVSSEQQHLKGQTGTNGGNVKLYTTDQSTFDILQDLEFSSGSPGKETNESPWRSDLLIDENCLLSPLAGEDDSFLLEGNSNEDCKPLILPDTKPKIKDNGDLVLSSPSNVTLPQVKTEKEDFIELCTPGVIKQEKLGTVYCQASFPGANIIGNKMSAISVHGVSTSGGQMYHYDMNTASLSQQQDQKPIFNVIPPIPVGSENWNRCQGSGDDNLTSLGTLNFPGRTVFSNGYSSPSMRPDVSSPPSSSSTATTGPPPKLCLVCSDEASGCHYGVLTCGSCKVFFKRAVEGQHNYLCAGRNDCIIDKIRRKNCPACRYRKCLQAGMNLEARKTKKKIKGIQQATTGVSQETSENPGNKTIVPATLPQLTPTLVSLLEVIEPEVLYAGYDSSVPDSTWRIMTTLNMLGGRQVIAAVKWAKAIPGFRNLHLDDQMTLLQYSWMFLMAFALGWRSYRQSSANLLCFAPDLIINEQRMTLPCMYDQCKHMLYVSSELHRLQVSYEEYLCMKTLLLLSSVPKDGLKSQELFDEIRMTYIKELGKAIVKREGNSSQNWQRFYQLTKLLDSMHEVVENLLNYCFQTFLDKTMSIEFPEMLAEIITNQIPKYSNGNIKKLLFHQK
Experimental: as §1, §2, §3, §4, §5, §6, §7, §8, §9

[11] = target: T5, Estrogen receptor alpha (Homo sapiens, UniProt P03372); type: cell-based; settings: 24 h exposure, lowest effect level PC10, means from 3 assay runs
T5 construct: host or cells: U-2 OS
T5 sequence (P03372 whole entry): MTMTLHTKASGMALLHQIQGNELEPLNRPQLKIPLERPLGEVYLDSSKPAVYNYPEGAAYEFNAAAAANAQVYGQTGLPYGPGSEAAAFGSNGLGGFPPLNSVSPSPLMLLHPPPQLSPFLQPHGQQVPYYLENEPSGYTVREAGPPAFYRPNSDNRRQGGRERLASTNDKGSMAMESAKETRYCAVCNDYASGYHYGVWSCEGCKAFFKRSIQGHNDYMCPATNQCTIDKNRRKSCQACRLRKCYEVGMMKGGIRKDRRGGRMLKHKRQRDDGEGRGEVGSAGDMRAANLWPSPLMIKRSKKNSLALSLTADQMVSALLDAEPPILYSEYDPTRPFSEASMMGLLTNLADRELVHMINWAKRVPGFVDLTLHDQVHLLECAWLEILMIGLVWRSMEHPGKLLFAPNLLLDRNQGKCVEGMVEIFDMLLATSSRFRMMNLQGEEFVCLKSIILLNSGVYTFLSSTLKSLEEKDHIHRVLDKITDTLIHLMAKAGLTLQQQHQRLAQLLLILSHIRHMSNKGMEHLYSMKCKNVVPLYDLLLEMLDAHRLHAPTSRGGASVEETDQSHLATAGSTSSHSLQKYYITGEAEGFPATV
Experimental: as §1, §2, §3, §4, §5, §6, §7, §8, §9

| SMILES | response profile over the CALUX battery (in words) [1] | PoD Nrf2 [2] | PoD p53 [3] | PoD cytotoxicity [4] | air-water partition coefficient KAW [5] | PoD AP1 [6] | PoD PR - anta [7] | PoD AhR - ago [8] | PoD PXR - ago [9] | PoD GR - anta [10] | PoD Erα - ago [11] |
| --- | --- | --- | --- | --- | --- | --- | --- | --- | --- | --- | --- |
| [Cl][Hg][Cl] [Mercury chloride] | only activated stress pathway related assays | 5.5 -log(M) | 5.7 -log(M) | 4.7 -log(M) | 0.02 | 5.8 -log(M) |  |  |  |  |  |
| O=P(Oc1ccccc1)(Oc1ccccc1)Oc1ccccc1 [Triphenyl phosphate] | only activated nuclear hormone receptor related assays |  |  | 4.0 -log(M) |  |  | 5.2 -log(M) | 4.2 -log(M) | 6.1 -log(M) | 4.8 -log(M) | 5.4 -log(M) |

— paper PMC7367925, “The EU-ToxRisk method documentation, data processing and chemical testing pipeline for the regulatory use of new approach methods” (Archives of Toxicology, 2020)
